Values of other authors as cited in US20240261217A1, “NUTRACEUTICAL GUMMY COMPOSITIONS AND METHOD OF PREVENTING ALCOHOL OVERCONSUMPTION SYMPTOMS” (LiQure, Inc., priority 2023, published 2024).
“Also recorded” adds a separate entry of the source.

Columns and labels:
liver = details: mouse, in vivo
[1] = recent studies
intoxicated mice = details: DHM administered to intoxicated mice
[2] = in vivo
[3] = system: alcohol dehydrogenase (ADH)
[4] = system: acetaldehyde dehydrogenase (ALDH)

## O=C1c2c(O)cc(O)cc2O[C@H](c2cc(O)c(O)c(O)c2)[C@H]1O [DHM, Dihydromyricetin]
liver
  effect on alcohol-induced liver damage: can also prevent (and help repair) alcohol-induced liver damage; also recorded: protect the liver from alcohol-induced damage
[1]
  effect on blood alcohol levels: can reduce blood alcohol levels
Intoxicated mice
  anti-hangover benefits: provide “anti-hangover” benefits
  liver-protection properties: possesses liver-protection properties
During a hangover
  hangover symptoms compared with people who did not take DHM: fewer headaches, less dizziness, less nausea, and less weakness during a hangover
Studies and anecdotal reports, users
  symptoms when taking DHM after drinking alcohol: fewer headaches, less nausea, less vomiting and less anxiety
[2]
  amount found to mitigate symptoms of over-intoxication from alcohol: 100 to 650 mg
[3]
  effect on activity of alcohol dehydrogenase (ADH): enhances the activity of these enzymes
[4]
  effect on activity of acetaldehyde dehydrogenase (ALDH): enhances the activity of these enzymes
